Source: US12668572B2, “Degradable lipid for active molecule delivery and lipid nanoparticle thereof” (BEIJING CARRIUS BIO LTD., priority 2023, dated 2026)

System: expression of luciferase (firefly luciferase mRNA) in liver
Assay: In vivo luciferase imaging (IVIS) of liver after tail vein administration of Fluc mRNA/LNPs
Parameters: species or system Balb/c mice
Details: 6 hours; for Average intensity (comparison with SM102 and MC3): N/P 7.5, tail vein, liver
Method: In order to achieve mRNA delivery at animal level, the inventors prepared mRNA/lipid nanoparticles using the method as follows: formulating each of the ionizable lipid compounds (YX8, YX17, YX31, YX27, YX28, YX35, YX29 or YX33) prepared in Example 1, cholesterol, DOPE and DMG-PEG2000 into a 10 mg/mL ethanol solution. Taking YX27 as an example, when preparing an mRNA/LNP complex in a single time, YX27 solution (1.6 mg) was measured and mixed with cholesterol, DOPE and DMG-PEG2000 according to a molar ratio of 50:38.5:10:1.5, and the total volume of the solution was allowed to reach 450 μl by supplementing ethanol. 150 μg of firefly luciferase mRNAs were taken and added to a sodium acetate buffer (50 mM, pH=5.2), and the total volume of the solution was 1350 μl. The ionizable lipid compound solution and the mRNA solution were mixed by introducing into a microfluidic machine (speed: 0.2 mL/min of ethanol solution, and 0.6 mL/min of sodium acetate buffer solution) to prepare lipid nanoparticles encapsulating mRNAs, which were dialyzed against PBS buffer for 2 hours, and the obtained samples were directly used for animal experiments. The ratio of the ionizable lipid compound YX27 to mRNAs was calculated according to the molar ratio (N/P) of the nitrogen atoms in YX27 to the phosphorus atoms in the phosphate skeleton of the mRNAs. In this example, N/P was 7.5.
In order to verify the delivery effect of the above Fluc mRNA/LNP preparation, YX27 LNPs encapsulating 150 μg/kg Fluc mRNAs were injected into 6-8 week-old female Balb/c mice by administration via tail vein, or YX27 LNPs encapsulating 250 μg/kg Fluc mRNAs were injected into the hind legs of mice by intramuscular administration; after 6 hours, 200 μl of D-Lucifin (with a mass fraction of 30%) was injected by intraperitoneal administration, and the expression and intensity of luciferase in the whole body, liver and muscle administration sites were detected by PerkinElmer IVIS Lumina III small animal in vivo optical imaging system. In order to study the effect of the hydrophobic chain length of lipid compounds on mRNA delivery efficiency, LNP samples encapsulating Fluc mRNAs were prepared using lipid compounds YX9, YX8, YX17 and YX31 respectively according to YX27 experimental operation, and the efficiency of luciferase expression in mice was studied.
In order to study the effect of the mixing ratio (N/P ratio) of ionizable lipids and mRNAs as the LNP components on the mRNA delivery efficiency, mixed samples of YX27 and luciferase mRNAs at N/P ratios of 7.5 and 9 were prepared according to the operation steps of Example 2, the mRNA delivery and the expression and intensity of luciferase in the whole body, liver and other sites were studied by administration via tail vein (the delivery results are shown in FIG. 3 and the table below).
LNPs containing SM102 or MC3 as the cationic lipid and luciferase mRNAs at an N/P ratio of 7.5 were prepared according to the operation steps of Example 2, in which the dose of Fluc mRNAs was 25 μg/kg, 50 μg/kg or 150 μg/kg respectively; and then the mRNA delivery by the prepared LNPs and the expression and intensity of luciferase in the whole body, liver and other sites were studied by administration via tail vein. The delivery results are shown in FIG. 4A, FIG. 4B and the table below.
In order to verify the expression efficiency of luciferase after administration of Fluc mRNA/LNPs as a function of time, YX27 solution encapsulating 150 μg/kg of Fluc mRNAs was injected into 6-8 week-old female Balb/c mice by administration via tail vein; 2 h, 4 h, 6 h, 18 h and 24 h after administration respectively, 200 μl of D-Lucifin (with a mass fraction of 30%) was injected by intraperitoneal administration, and the expression and intensity of luciferase in the whole body and liver site were detected by PerkinElmer IVIS Lumina III small animal in vivo optical imaging system. […]

Row | Compound | Average intensity (comparison with SM102 and MC3) (Fluc mRNA dose 25 μg/kg) [p/s] | Average intensity (comparison with SM102 and MC3) (Fluc mRNA dose 50 μg/kg) [p/s] | Average intensity (comparison with SM102 and MC3) (Fluc mRNA dose 150 μg/kg) [p/s] | Average intensity 50 μg/kg (lipids with different structures) (Fluc mRNA 50 μg/kg, N/P 7.5, liver tissue) [p/s] | Average intensity 150 μg/kg (lipids with different structures) (Fluc mRNA 150 μg/kg, N/P 7.5, liver tissue) [p/s]
1 | CCCCC/C=C\C/C=C\CCCCCCCCC(CCCCCCCC/C=C\C/C=C\CCCCC)OC(=O)CCCN(C)C [MC3, D-Lin-MC3-DMA] | 4.28E+08 | 8.40E+08 | 7.16E+09 | – | –
2 | CCCCCCCCCCCOC(=O)CCCCCN(CCO)CCCCCCCC(=O)OC(CCCCCCCC)CCCCCCCC [SM102] | 1.20E+09 | 2.02E+09 | 5.65E+09 | 2.02E+09 | 5.65E+09
